Assay results taken from patent US12441803B2, “Engineered CD25 polypeptides and uses thereof” (iBio, Inc., priority 2018, dated 2025).

Test system: alanine mutant versions of CD25
Experiment: Alanine mutagenesis functional epitope mapping
Details: binding responses to alanine mutant versions of CD25
Method: Alanine mutagenesis was selected as an orthogonal method for binning antibodies because it operates on the functional epitope, rather than the structural epitope defined by competition assays. Various pairs of surface-accessible residues were selected for mutagenesis.
Each of 117 scFv's from the screening campaign were tested against four alanine mutations pairs (FIG. 31).

basiliximab
Ala-mutant epitope mapping of control antibody: Ala mutant binding responses corroborate crystal structure of the basiliximab epitope
